# Columns and labels:
# [1] = test system: chicken myeloblastosis virus (AMV) reverse transcriptase; test: AMV reverse transcriptase, amount of cDNA synthesis; type: biochemical; conditions: 0.01 μl of Yoshixol added to 25 units AMV reverse transcriptase, RNA 5 μg, PCR
# Method: In order to investigate the effect on virus, changes in structure of single strand DNA, double strand DNA and mRNA of E. coli bacteriophage (1 ml of 1 mol solution), which were prepared as non-treated sample and treated sample with 4 μl of Yoshixol, were observed by scanning and transmission electron microscopes. In addition, according a general bacteriological technique, changes in proliferation and in morphological aspect (by scanning and transmission electron microscopes) of E. Coli, which was infected by single strand DNA, double strand DNA or mRNA, were investigated before and after treatment of each phage with Yoshixol. As treated samples, 4 μl of Yoshixol was added in 1 ml of each phage solution which concentration was adjusted to 1 mol. […] In addition, an effect of Yoshixol on chicken myeloblastosis virus (AMV) reverse transcriptase (Gibco Co. Getesburg, Md., USA) was investigated by measuring amount of cDNA synthesis, which was amplified by PCR of RNA(5 μg) and AMV reverse transcriptase (25 units). As treated group, 0.01 μl of Yoshixol was added to 25 units sample of the AMV reverse transcriptase. Thus, the expected production of cDNA was obtained in the non-treated group, however, the amount of cDNA production decreased to 10% of the expected one when Yoshixol was treated (referred FIG. 15).
# [2] = test system: atypical mycobacteria (Mycobacterium Rapid Grower); test: Anti-microbacterial effect on acid-fast bacteria; type: cell-based
# [3] = test system: E. coli strain no. W3110; test: Anti-microbacterial effect on E. Coli; type: cell-based; conditions: for colony formation unit (CFU): 2 μl per 1 ml of culture medium
# [4] = test system: primer (SEQ ID NO: 2) and snake DNA; test: PCR with primer or DNA template treated with Yoshixol; type: biochemical
# Method: Effect of Yoshixol on PCR was investigated by DNA template which was extracted from snake (blue-green snake, captured at Matsumoto city, Nagano). The new synthesized dimer of (SEQ ID NO: 2) (5′>CTTCGGGCTTCGGG<3′) with 7 base-pair alignment (CTTCGGG) above-mentioned was used as a primer. PCR reaction was done by use of DNA thermal cycler (PJ-2000) made in PERKIN ELMER CETUS company. The following six combinations were prepared for the test samples. Those are two kinds of samples which consist of 5 μl of primer (100 pico mole/μl) with 5 μl of Yoshixol (P+) and without Yoshixol (P−). In addition, two kinds of samples which consist of 5 μl. of snake DNA (500 ng/μl) with 5 μl of Yoshixol (D+) and without Yoshixol (D−). And, additional two kinds of samples which consist of 1 μl of polymerase enzymes (Recombinant Taq DNA Polymerase, No. R001A, TaKaRa Shuzo Co., Otsu city: 5 unit/pd) with 1 μl of Yoshixol (Pm+) and without Yoshixol (Pm−). After each sample was placed for 10 minutes at room temperature, each sample was diluted in distilled water. And, it is adjusted in a primer solution of 10 picomole/μl, DNA solution of 50 ng/μl and a polymerase enzymes solution of 0.5 unit/μl. Then, the following combinations were prepared. […] In each combination, amount of cDNA synthesis was amplified by a PCR method and was measured. […]
# [5] = test system: rejected reaction on heterogeneous skin implantation; test: Heterogeneous skin implantation, recipient dogs given Yoshixol intravenously; type: in vivo, dog (rabbit skin)
# [6] = test system: trypsin; test: Function and configuration of trypsin, electrophoresis; type: biochemical; conditions: after treatment with Yoshixol 4 μl
# Method: Each physiological effect of trypsin (Wakou Jyunyaku Ltd.) and thrombin (Behlinger Manheim-Yamanouchi Co.) was investigated by electrophoresis. When trypsin was added to bovine albumin (Sigma Co. Saint Louis, Mo., USA) or myoglobin (Sigma Co. Saint Louis, Mo., USA), each primary structure of proteins which consist of albumin was altered by proteolytic action of trypsin. In addition, when thrombin was added to human fibrinogen (Behlinger Manheim-Yamanouchi Co.), a primary structure of proteins which consists of fibrinogen was not found.
# [7] = test system: pseudomonas aeruginosa; test: Histological observation of pseudomonas aeruginosa after treatment; type: cell-based; conditions: after treatment with Yoshixol
# [8] = test system: nitric oxide (NO); test: Involvement of nitric oxide, NG-methyl-L-arginine (NMLA) as blocking agent; conditions: 4 μl of NMLA (1 mol) added; compared to Yoshixol alone
# Method: Recent interest has been focused recently in effects of nitric oxide (NO) which is generated in body. Such effects are anticancer effect, bactericidal effect, inhibitory effect of antigen-antibody reaction and cardiovascular effect. […] When 4 μl of NMLA (1 mol) was added in the each test sample with and without Yoshixol, blood aggregation effect, effect of fibrin formation and bactericidal effect of Yoshixol were decreased by 10-20% comparing to effect of Yoshixol alone.
# [9] = 50 μl in the whole space of the schale, indirect contact, 24 hours, 37° C.
# [10] = beagles, oral 10 μl per body weight
# [11] = beagles, oral 10 μl per body weight, 1 week
smiles,measurement,setting,value
"C=C1CC(C)(C)C=CC1=O [Yoshixol, 4,4-dimethyl-6-methylene-2-cyclohexen-1-one]","amount of cDNA production, of the expected one",[1],10%
same,proliferation with evaporating component of Yoshixol,[2]; [9],did not occur
same,diameter of inhibition zone of proliferation,[2]; at 2 μl,22 mm
same,dosage at which formation of inhibition zone of proliferation occurred,[2]; brain-heart infusion agar,0.2 μl of Yoshixol per 1 ml of the culture medium
same,colony formation unit (CFU),"[3]; after 1 hour cultured, initial 10^8",zero
same,colony formation unit (CFU),"[3]; after 24 hours, initial 10^8, control 10^10",zero
same,proliferation with evaporating component of Yoshixol,[3]; [9],did not occur
same,"histological aspect of cell death, scanning electron microscopy",[3]; final stage after Yoshixol,destroyed resulting in small particles
same,"PCR bounds versus P−, D−, Pm−, group P+, D−, Pm−",[4]; only primer processed by Yoshixol (5 μl with 5 μl),did not differ
same,"PCR bounds versus P−, D−, Pm−, group P−, D+, Pm−",[4]; only snake DNA processed by Yoshixol (5 μl with 5 μl),did not differ
same,albumin/globulin ratio,[10],elevated 3 days after administration
same,creatinine phosphokinase,[10],fell
same,"enzymes such as γ-GPT, GOT, GPT",[10],also fell
same,albumin level,[11],did not change
same,"changes in concentration of total bilirubin, GOT, GPT, TTT, ZTT, cholinesterase, serum iron, potassium, sodium, chloride, inorganic phosphorus and calcium",[11],did not found
same,difference in concentration of total cholesterol and triglyceride between groups,[11],did not occur
same,level of uric acid,"beagles, oral 10 μl per body weight, during the administration",maintained at lower level
same,total proteins in blood serum,"beagles, oral 10 μl per body weight, recovery 1 week after stop",increased 3 days after administration
same,levels of nonproteins nitrogen and creatinine in the serum,"beagles, oral 10 μl per body weight, since 1 day after administration",70-80 % of the control
same,TTT and ZTT,"dog, in vivo, po",did not show abnormal values
same,"changes in numbers of red blood cells, white blood cells and platelets","dog, in vivo, po",did not found
same,epithelialization of wounded skin,"[5]; dogs, 10 μl/Kg per day intravenously for one week, 3 month after implantation",well epithelialization was found
same,implantation of transplanted rabbit skin,"[5]; dogs, 10 μl/Kg per day of Yoshixol intravenously for one week, no antibiotics or immunosuppressants",implanted on the back of dog over 1 month without a rejection reaction and bacterial infection
same,behaviors of adult mongrel dog,"[5]; intravenous administration, compared with before the treatment","became vigor, youthful and appetite-well"
same,"physiological function of trypsin to bovine albumin, myoglobin",[6],did not occur
same,primary structure of trypsin (electrophoresis),[6],did not show any electrophoretic changes
same,histological observation of the bacilli,[7],swelled as likely as a balloon and were ruptured
same,"decrease of blood aggregation effect, effect of fibrin formation and bactericidal effect of Yoshixol",[8],10-20%

# From patent US6710090B2, “Inhibitory or blocking agents of molecular generating and/or inducing functions” (priority 1994, dated 2004)
